This is an account of results in ChEMBL document CHEMBL5244219, “Recent developments of quinolone-based derivatives and their activities against Escherichia coli” (Eur J Med Chem, 2018).

The structures appear in SMILES notation. Values after ≈ are worked out from the molar mass of the structure shown. Some results are limits rather than exact numbers.

One may read the MIC as the lowest concentration that inhibits growth of the organism. For orientation: half-life means the time needed for the level to fall by half in the phase considered. A low value points to fast loss. As a reminder, the AUC is concentration integrated over time. Read a low AUC as low exposure. In general, MIC90 refers to the lowest concentration that inhibits either 90% of growth or 90% of the strains tested, depending on the study. The term MIC50 denotes an inhibitory concentration at the 50% level, which refers to growth in some studies and to a panel of isolates in others. For orientation: ED50 means the dose at which the effect has come halfway, by size or by number of responders. What is called AUC(0-inf) is total exposure, with the tail of the curve extrapolated. Usually Cmax stands for the highest concentration seen after dosing.

Data set [1] deals with Escherichia coli. Nature of the data set: Antibacterial activity against Escherichia coli ATCC 35218 assessed as bacterial growth inhibition incubated for 18 hrs by agar dilution method. The data set is classed as functional. Background: In agar dilution the substance is mixed into plates at graded concentrations.
Data set [2] deals with Escherichia coli. Briefly: Antibacterial activity against Escherichia coli NCTC 10418 assessed as bacterial growth inhibition incubated for 18 to 20 hrs by agar dilution method. The data set is classed as functional. Conditions: time 18-20 hrs.
Data set [3] relates to Escherichia coli. Briefly: Antibacterial activity against Escherichia coli assessed as bacterial growth inhibition incubated for 18 hrs by agar dilution method. The data set is classed as functional.
Data set [4] can be described thus: Half life in marmoset at 3 mg/kg, iv. The data set is classed as ADME, organism-based. Conditions: callitrichinae sp., in vivo.
The subject of data set [5] is Escherichia coli. Briefly: Antibacterial activity against Escherichia coli DC2 assessed as bacterial growth inhibition by agar dilution method. The data set is classed as functional.
Data set [6] in a line: AUC in marmoset at 3 mg/kg, iv. The data set is classed as ADME, organism-based. Further details: dose 3 mg/kg, route iv. Conditions: callitrichinae sp., in vivo.
In data set [7] the test system is Escherichia coli. Briefly: Antibacterial activity against Escherichia coli DC0 assessed as bacterial growth inhibition by agar dilution method. The data set is classed as functional.
Data set [8] has as its system Escherichia coli. Briefly: Antibacterial activity against Escherichia coli assessed as bacterial growth inhibition by microdilution method. The data set is classed as functional. On the technique in general: In broth dilution the organism is exposed to a series of concentrations in liquid medium.
Data set [9] has as its system Escherichia coli. Briefly: Antibacterial activity against Escherichia coli assessed as bacterial growth inhibition by broth microdilution method. The data set is classed as functional.
In data set [10] the test system is Escherichia coli. Nature of the data set: Antibacterial activity against Escherichia coli assessed as bacterial growth inhibition by agar dilution method. The data set is classed as functional.
For data set [11], the system named is Escherichia coli. Briefly: Antibacterial activity against Escherichia coli TolC assessed as bacterial growth inhibition. The data set is classed as functional.
In data set [12] the test system is Escherichia coli. Briefly: Antibacterial activity against Escherichia coli DH5alpha assessed as bacterial growth inhibition. The data set is classed as functional.
In data set [13] the test system is Escherichia coli. Nature of the data set: Antibacterial activity against Escherichia coli assessed as bacterial growth inhibition incubated for 18 to 20 hrs by agar dilution method. The data set is classed as functional. The settings on record: time 18-20 hrs.
For data set [14], the system named is Escherichia coli. Nature of the data set: Antibacterial activity against Escherichia coli H560 assessed as bacterial growth inhibition. The data set is classed as functional.
Data set [15] deals with Escherichia coli. Briefly: Antibacterial activity against Escherichia coli NCDC 134 assessed as bacterial growth inhibition. The data set is classed as functional.
The test system of data set [16] is Escherichia coli. Nature of the data set: Antibacterial activity against Escherichia coli assessed as bacterial growth inhibition incubated for 16 to 24 hrs by absorbance analysis. The data set is classed as functional. The settings on record: time 16-24 hrs.
A short description of data set [17]: Half life in mouse at 20 mg/kg, po. The data set is classed as ADME, organism-based. Conditions: in vivo.
The subject of data set [18] is Escherichia coli. Briefly: Antibacterial activity against Escherichia coli KC-14 assessed as bacterial growth inhibition. The data set is classed as functional.
Data set [19] relates to Escherichia coli. Briefly: Antibacterial activity against Escherichia coli KC-14 infected in po dosed mouse assessed as bacterial growth inhibition. The data set is classed as functional. Conditions: Escherichia coli, KC-14, po, read-out: ED50.
Data set [20] can be described thus: AUC(0 to infinity) in mouse at 20 mg/kg, po. The data set is classed as ADME, organism-based. Further details: dose 20 mg/kg, route po. Conditions: in vivo.
Data set [21] is described as follows: Cmax in mouse at 20 mg/kg, po. The data set is classed as ADME, organism-based. Further details: dose 20 mg/kg, route po. The settings on record: in vivo.
The subject of data set [22] is Escherichia coli. Nature of the data set: Antibacterial activity against Escherichia coli ATCC 25922 infected in iv dosed mouse assessed as bacterial growth inhibition. The data set is classed as functional.
The test system of data set [23] is Escherichia coli. Nature of the data set: Antibacterial activity against Escherichia coli ISF 432 assessed as bacterial growth inhibition. The data set is classed as functional.
The test system of data set [24] is Escherichia coli. Briefly: Antibacterial activity against Escherichia coli ATCC 8739 assessed as bacterial growth inhibition. The data set is classed as functional.

Regarding `COc1cccc(CO/N=C2\CCN(c3c(F)cc4c(=O)c(C(=O)O)cn(C5CC5)c4c3OC)CC2N)c1OC` (stereo not given), the minimum inhibitory concentration (MIC) in the data set with Escherichia coli [1] was less than 0.008 µg/mL. For the compound `CCn1cc(C(=O)O)c(=O)c2cc(F)c(N3CCN(CN4C(=O)/C(=N/NC(N)=S)c5cc(Br)ccc54)CC3)cc21`, in the data set on Escherichia coli [2], the MIC was no more than 0.018 µg/mL. As to `N[C@@H]1CN(c2c(F)cc3c(=O)c(C(=O)O)cn([C@@H]4C[C@@H]4F)c3c2Cl)CC12CC2` [SITAFLOXACIN ANHYDROUS], the MIC in the data set with Escherichia coli [3] was no more than 0.006 µg/mL.

As for `CC(C)(O/N=C(\C(=O)N[C@@H]1C(=O)N2C(C(=O)[O-])=C(C[n+]3ccccc3)CS[C@H]12)c1csc(N)n1)C(=O)O` [CEFTAZIDIME], the half-life in data set [4] is 0.7 h. In addition, the MIC in the data set on Escherichia coli [5] and with Escherichia coli [7] was 0.06 µg/mL (≈ 0.11 µM) each time. In addition, in [6], the AUC was 14000 ng·h/mL. As for `CO/N=C1\CN(c2nc3c(cc2F)c(=O)c(C(=O)O)cn3[C@@H]2C[C@@H]2F)CC1CN` (stereo not given in full), the minimal inhibitory concentration (MIC) with Escherichia coli [1] was less than 0.008 µg/mL. On to `CC(=O)NC[C@H]1CN(c2ccc(N3CCN(c4cc5c(cc4F)c(=O)c(C(=O)O)cn5C4CC4)CC3)c(F)c2)C(=O)O1`, for which, in the data set with Escherichia coli [8], the minimal inhibitory concentration (MIC) was no less than 0.5 µg/mL.

For `COc1c(N2CC3(CC3)[C@](C)(N)C2)c(F)cc2c(=O)c(C(=O)O)cn([C@@H]3C[C@@H]3F)c12`, the MIC in the data set with Escherichia coli [3] is no more than 0.006 µg/mL.

As to `CCn1cc(C(=O)NNS(=O)(=O)c2ccc(C)cc2)c(=O)c2ccccc21`, the minimal inhibitory concentration (MIC) in the data set with Escherichia coli [9] was found to be 0.0625 µg/mL (≈ 0.162 µM).

On to `C[C@H]1NCc2cc(-c3ccc4c(=O)c(C(=O)O)cn(C5CC5)c4c3OC(F)F)ccc21` [GARENOXACIN], for which the MIC90 in the data set with Escherichia coli [10] was 4 µg/mL (≈ 9.38 µM). With `CC(C)=CCc1c(C)[nH]c2ccccc2c1=O`, the MIC50 is greater than 1.41 µg/mL with Escherichia coli [11] and greater than 64 µg/mL in the data set on Escherichia coli [12]. As for `CCn1cc(C(=O)O)c(=O)c2cc(F)c(N3CCNC(C)C3)c(F)c21` (stereo not given) [LOMEFLOXACIN], the MIC in the data set on Escherichia coli [13] came to 0.02 µg/mL (≈ 0.0569 µM). Consider `COc1c(N2CCNC(C)C2)c(F)cc2c(=O)c(C(=O)O)cn(C3CC3)c12` (stereo not given) [GATIFLOXACIN], for which the MIC with Escherichia coli [14] is 0.006 µg/mL (≈ 0.016 µM); in the data set with Escherichia coli [15], 100 µg/mL (≈ 266 µM); in the data set with Escherichia coli [13], 0.015 µg/mL (≈ 0.04 µM). In addition, in the data set with Escherichia coli [10], the MIC90 is 4 µg/mL (≈ 10.7 µM). Turning to `CCn1cc(C(=O)O)c(=O)c2cc(F)c(N3CCN(CN4C(=O)/C(=N/NC(N)=S)c5cc(Cl)ccc54)CC3)cc21`, the minimal inhibitory concentration (MIC) in the data set with Escherichia coli [2] was no more than 0.018 µg/mL.

Regarding `CCn1cc(C(=O)O)c(=O)c2cc(F)c(N3CCN(CN4C(=O)C(=O)c5cc(Br)ccc54)CC3)cc21`, in the data set on Escherichia coli [2], the minimal inhibitory concentration (MIC) is no more than 0.018 µg/mL. On to `COc1cc(Cc2cnc(/N=C3\C(=O)N(CN4CCN(c5c(F)cc6c(=O)c(C(=O)O)cn(C7CC7)c6c5OC)CC4C)c4ccccc43)nc2N)cc(OC)c1OC` (stereo not given), for which, in the data set with Escherichia coli [13], the MIC was 0.02 µg/mL (≈ 0.0248 µM). `CC(=O)NC[C@H]1CN(c2ccc(NC3CN(c4nc5c(cc4F)c(=O)c(C(=O)O)cn5C4CC4)C3)c(F)c2)C(=O)O1`: the minimal inhibitory concentration (MIC) with Escherichia coli [8] is no less than 0.5 µg/mL. Turning to `Cc1[nH]c2ccc(Br)cc2c(=O)c1CC(=O)O`, the MIC with Escherichia coli [16] turned out to be 8.97 µg/mL (≈ 30.3 µM). Regarding `COc1c(N2CCN(C)CC2)c(F)cc2c(=O)c(C(=O)O)c3n(c12)C(CF)S3` (stereo not given), in data set [17], the half-life was 1.2 h. Further, the MIC with Escherichia coli [18] is 0.025 µg/mL (≈ 0.0608 µM). Further, in the data set on Escherichia coli [19], the ED50 was found to be 0.76 mg/kg. In data set [20], the AUC(0-inf) stood at 3500 ng·h/mL. In [21], this compound had a Cmax of 3200 ng/mL. Turning to `NC1CCN(c2nc3c(cc2F)c(=O)c(C(=O)O)cn3-c2ccc(F)cc2F)C1` (stereo not given) [TOSUFLOXACIN], the MIC in the data set on Escherichia coli [14] is no more than 0.003 µg/mL. For the compound `CN1CCN(c2cc3c(cc2F)c(=O)c(C(=O)O)cn3-c2ccc(O)cc2)CC1`, in the data set with Escherichia coli [22], the median effective dose (ED50) was 0.75 mg/kg.

In the case of `COc1c(N2C[C@@H]3CCCN[C@@H]3C2)c(F)cc2c(=O)c(C(=O)O)cn(C3CC3)c12` [MOXIFLOXACIN], the figures for the minimal inhibitory concentration (MIC) in the data set on Escherichia coli [14] and in the data set on Escherichia coli [11] were 0.006 µg/mL (≈ 0.0149 µM) and 11.5 µg/mL (≈ 28.7 µM), respectively. Also, the MIC90 in the data set on Escherichia coli [10] was 4 µg/mL (≈ 9.96 µM).

Take `Cc1c(N2C[C@@H](F)[C@@H](C3(N)CC3)C2)c(F)c(N)c2c(=O)c(C(=O)O)cn([C@@H]3C[C@@H]3F)c12` [DQ-113]: the MIC in the data set on Escherichia coli [14] is no more than 0.003 µg/mL.

In the case of `Cc1c(N2CC(C)OC(C)C2)c(N)cc2c(=O)c(C(=O)O)cn(C3CC3)c12` (stereo not given), the minimum inhibitory concentration (MIC) in the data set with Escherichia coli [23] and in the data set on Escherichia coli [24] was 0.008 µg/mL (≈ 0.0215 µM) throughout. Take `CCn1cc(C(=O)NN)c(=O)c2cc(Cl)ccc21`: the minimal inhibitory concentration (MIC) in the data set with Escherichia coli [9] was found to be 0.0625 µg/mL (≈ 0.235 µM). On to `Cc1c(N2CCc3ccccc3C2)c(N)cc2c(=O)c(C(=O)O)cn(C3CC3)c12`, for which the minimal inhibitory concentration (MIC) with Escherichia coli [23] and in the data set on Escherichia coli [24] was 0.008 µg/mL (≈ 0.0205 µM) throughout. In [17], `COc1c(N2CCN(C)CC2)c(F)cc2c(=O)c(C(=O)O)c3n(c12)C(C)S3` (stereo not given) had a half-life of 4.9 h. In the data set with Escherichia coli [18], the MIC was found to be 0.1 µg/mL (≈ 0.254 µM). The median effective dose (ED50) in the data set with Escherichia coli [19] amounted to 1.28 mg/kg. This compound also yielded an AUC(0-inf) in data set [20] of 2700 ng·h/mL. Besides, the concentration in [21] peaked (Cmax) at 840 ng/mL.
